Test [1] addresses PI3K δ (Homo sapiens, UniProt O00329). In words: PI 3-Kinase (human) HTRF assay, PI3K δ. As to conditions: read-out: PI3K δ IC50. A general note: Time-resolved FRET reads energy transfer from a long-lived donor to a nearby acceptor.
Method: (§1) An exemplary system is PI 3-Kinase (human) HTRF™ Assay from Upstate. […] Briefly, the assay is a time resolved FRET assay that indirectly measures PIP3 product formed by the activity of a PI3-K. The kinase reaction is performed in a microtitre plate (e.g., a 384 well microtitre plate). The total reaction volume is approximately 20 ul per well. In the first step, each well receives 2 ul of test compound in 20% dimethylsulphoxide resulting in a 2% DMSO final concentration. […] The plate is sealed and incubated for 15 minutes at room temperature. […] The plate is sealed and incubated for 1 hour at room temperature. The reaction is stopped by adding 5 ul of Stop Solution per well and then 5 ul of Detection Mix is added per well. The plate is sealed, incubated for 1 hour at room temperature, and then read on an appropriate plate reader. Data is analyzed and IC50s are generated using GraphPad Prism 5.
The target of test [2] is T1, mTOR (Homo sapiens, UniProt P42345).
T1 construct: purchased Invitrogen
Put plainly: mTOR kinase inhibition assay (radiometric or LanthaScreen TR-FRET). It is filed as biochemical. As to conditions: Table 2; read-out: mTORC IC50.

Test [3] deals with PI3K α (Homo sapiens, UniProt P42336). Put plainly: PI 3-Kinase (human) HTRF assay, PI3K α. To be noted: read-out: PI3K α IC50.
In test [4] the target is PI3K β (Homo sapiens, UniProt P42338). In words: PI 3-Kinase (human) HTRF assay, PI3K β. To be noted: read-out: PI3K β IC50; Table 2.
In test [5] the target is PI3K γ (Homo sapiens, UniProt P48736). In words: PI 3-Kinase (human) HTRF assay, PI3K γ. As to conditions: read-out: PI3K γ IC50.
Method: as §1

Like-named read-outs stand apart in the source and are kept apart here. Where only a bound is given, the exact number is not on record here.

This is an account of results in patent US9295673B2, “Combination of mTOR inhibitors and P13-kinase inhibitors, and uses thereof” (Intellikine LLC, priority 2011, dated 2016).

Sequence of PI3K δ (O00329 whole entry): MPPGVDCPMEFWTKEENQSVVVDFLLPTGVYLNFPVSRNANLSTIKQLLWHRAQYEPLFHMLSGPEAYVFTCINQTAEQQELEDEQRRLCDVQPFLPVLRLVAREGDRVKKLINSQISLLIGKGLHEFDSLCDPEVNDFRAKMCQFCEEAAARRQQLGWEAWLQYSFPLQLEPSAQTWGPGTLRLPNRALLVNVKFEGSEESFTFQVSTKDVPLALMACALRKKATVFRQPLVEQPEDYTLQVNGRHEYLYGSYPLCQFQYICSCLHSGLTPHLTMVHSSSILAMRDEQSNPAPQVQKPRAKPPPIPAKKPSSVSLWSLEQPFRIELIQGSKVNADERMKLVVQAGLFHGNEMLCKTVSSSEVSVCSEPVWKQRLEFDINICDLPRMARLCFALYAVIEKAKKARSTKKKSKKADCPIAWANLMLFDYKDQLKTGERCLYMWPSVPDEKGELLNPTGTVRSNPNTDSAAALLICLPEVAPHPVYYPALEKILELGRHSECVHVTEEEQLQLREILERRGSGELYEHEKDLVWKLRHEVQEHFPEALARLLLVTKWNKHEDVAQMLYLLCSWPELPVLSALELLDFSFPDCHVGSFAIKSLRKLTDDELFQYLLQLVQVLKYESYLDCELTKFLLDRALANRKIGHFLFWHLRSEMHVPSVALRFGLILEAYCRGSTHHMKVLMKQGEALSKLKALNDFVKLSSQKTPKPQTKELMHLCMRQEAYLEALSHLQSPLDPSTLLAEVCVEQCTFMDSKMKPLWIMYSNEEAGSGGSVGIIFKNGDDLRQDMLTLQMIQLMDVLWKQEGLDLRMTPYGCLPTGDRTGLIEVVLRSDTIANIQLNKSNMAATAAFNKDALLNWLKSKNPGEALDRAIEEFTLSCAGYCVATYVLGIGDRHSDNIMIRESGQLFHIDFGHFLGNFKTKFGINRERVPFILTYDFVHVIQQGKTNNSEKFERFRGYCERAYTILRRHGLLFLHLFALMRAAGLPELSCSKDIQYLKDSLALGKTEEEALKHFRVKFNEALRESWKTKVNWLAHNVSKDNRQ
Sequence of PI3K δ (P27986 whole entry partner): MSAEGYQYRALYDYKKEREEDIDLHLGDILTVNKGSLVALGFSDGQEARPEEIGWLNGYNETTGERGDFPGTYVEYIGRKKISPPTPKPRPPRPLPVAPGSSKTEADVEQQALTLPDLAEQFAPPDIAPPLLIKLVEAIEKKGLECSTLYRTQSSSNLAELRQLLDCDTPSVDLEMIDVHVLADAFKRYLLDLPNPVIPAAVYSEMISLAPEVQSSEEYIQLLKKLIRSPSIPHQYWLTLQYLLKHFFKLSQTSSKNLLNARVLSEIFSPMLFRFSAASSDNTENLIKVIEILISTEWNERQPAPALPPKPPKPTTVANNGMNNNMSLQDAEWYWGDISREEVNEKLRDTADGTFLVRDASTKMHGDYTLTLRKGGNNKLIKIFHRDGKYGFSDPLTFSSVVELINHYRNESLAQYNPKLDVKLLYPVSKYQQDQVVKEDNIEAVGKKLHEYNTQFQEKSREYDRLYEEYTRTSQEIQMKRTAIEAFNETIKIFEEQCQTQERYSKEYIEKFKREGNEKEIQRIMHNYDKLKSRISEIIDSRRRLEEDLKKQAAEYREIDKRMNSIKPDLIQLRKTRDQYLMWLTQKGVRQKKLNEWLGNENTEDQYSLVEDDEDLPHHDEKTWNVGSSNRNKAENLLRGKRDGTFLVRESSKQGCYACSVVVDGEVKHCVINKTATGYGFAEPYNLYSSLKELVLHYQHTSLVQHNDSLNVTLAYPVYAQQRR
T1 sequence (P42345 1360-2549 limits assumed): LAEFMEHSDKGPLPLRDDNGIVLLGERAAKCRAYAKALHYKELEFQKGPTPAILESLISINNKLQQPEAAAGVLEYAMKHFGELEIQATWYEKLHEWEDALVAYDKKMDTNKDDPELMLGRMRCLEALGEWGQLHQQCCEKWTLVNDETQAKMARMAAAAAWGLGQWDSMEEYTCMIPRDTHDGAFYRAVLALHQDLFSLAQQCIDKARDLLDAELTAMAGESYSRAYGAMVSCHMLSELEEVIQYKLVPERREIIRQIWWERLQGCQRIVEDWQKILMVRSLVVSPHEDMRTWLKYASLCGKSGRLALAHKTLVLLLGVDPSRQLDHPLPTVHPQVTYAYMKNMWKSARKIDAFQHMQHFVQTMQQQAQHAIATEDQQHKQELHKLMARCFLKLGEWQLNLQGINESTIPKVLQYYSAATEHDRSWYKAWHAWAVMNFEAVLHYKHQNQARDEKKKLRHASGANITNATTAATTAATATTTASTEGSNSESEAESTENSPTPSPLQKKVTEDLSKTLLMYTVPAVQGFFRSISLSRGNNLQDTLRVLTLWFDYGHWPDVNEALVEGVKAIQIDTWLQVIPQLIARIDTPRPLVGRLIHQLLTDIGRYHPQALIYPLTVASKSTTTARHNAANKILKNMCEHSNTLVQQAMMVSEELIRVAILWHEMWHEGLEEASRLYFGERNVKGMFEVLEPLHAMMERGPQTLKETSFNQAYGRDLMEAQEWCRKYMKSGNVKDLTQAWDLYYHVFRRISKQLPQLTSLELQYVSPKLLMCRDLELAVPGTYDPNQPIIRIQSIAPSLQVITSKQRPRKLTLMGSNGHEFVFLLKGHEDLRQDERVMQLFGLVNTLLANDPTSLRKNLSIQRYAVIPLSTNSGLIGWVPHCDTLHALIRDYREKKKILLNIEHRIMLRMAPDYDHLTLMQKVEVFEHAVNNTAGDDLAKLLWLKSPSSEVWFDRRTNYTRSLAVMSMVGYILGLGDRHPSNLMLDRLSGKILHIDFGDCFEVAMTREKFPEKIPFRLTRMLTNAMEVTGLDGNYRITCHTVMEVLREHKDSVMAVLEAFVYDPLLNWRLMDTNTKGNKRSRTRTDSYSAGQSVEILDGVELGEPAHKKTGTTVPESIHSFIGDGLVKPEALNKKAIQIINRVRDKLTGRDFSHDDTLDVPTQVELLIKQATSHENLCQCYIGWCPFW
Sequence of PI3K γ (P48736 whole entry): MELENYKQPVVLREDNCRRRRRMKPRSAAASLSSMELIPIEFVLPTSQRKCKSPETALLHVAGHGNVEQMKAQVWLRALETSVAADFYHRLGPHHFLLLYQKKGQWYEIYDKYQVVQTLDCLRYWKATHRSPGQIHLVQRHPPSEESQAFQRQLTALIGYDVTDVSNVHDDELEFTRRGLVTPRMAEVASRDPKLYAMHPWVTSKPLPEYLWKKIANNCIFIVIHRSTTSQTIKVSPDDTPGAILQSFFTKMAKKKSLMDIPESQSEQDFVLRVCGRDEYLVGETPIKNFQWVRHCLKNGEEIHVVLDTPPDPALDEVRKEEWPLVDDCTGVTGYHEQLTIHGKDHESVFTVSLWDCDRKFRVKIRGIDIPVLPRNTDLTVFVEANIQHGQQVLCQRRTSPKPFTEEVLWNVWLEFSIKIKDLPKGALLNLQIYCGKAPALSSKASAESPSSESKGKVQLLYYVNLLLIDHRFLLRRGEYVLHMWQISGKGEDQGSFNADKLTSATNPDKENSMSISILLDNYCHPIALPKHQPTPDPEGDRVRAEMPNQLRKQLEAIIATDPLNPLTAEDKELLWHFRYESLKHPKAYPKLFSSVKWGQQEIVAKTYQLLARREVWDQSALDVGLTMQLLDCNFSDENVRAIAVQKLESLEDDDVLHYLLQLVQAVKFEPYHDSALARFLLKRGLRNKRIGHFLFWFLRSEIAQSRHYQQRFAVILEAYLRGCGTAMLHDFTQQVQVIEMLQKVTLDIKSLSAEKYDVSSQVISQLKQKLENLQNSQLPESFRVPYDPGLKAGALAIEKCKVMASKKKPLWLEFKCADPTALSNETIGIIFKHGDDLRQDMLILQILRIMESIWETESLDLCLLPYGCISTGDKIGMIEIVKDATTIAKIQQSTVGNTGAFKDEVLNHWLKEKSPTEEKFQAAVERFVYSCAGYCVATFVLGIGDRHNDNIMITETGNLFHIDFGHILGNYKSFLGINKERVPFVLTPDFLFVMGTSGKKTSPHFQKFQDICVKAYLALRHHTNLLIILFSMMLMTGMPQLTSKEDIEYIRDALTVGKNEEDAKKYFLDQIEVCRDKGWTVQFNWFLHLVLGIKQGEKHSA

By IC50 is commonly meant the concentration needed to halve the response being measured. In the case of `Nc1ncnc2c1c(-c1cc3cccc(O)c3[nH]1)nn2C1CCN(C(=O)C2CC2)CC1` [Compound 41], the IC50 is over 0.5 µM in test [1] (Table 2); under 0.01 µM in test [2]; over 0.5 µM in test [3] (Table 2); over 0.5 µM in test [4]; 0.025 to 0.05 µM in test [5].
As for `Nc1ncnc2c1c(-c1cc3cc(O)ccc3[nH]1)nn2C1CC(N2CCOCC2)C1` (stereo not shown) [Compound 49], the IC50 in test [1] is 0.1 to 0.5 µM; in test [2], under 0.01 µM; in test [3] it was over 0.5 µM; in test [4], over 0.5 µM; in test [5] (Table 2), 0.1 to 0.5 µM.
Turning to `CC(C)n1nc(-c2cc3cccc(Cl)c3[nH]2)c2c(N)ncnc21` [Compound 50], the IC50 in test [1] is 0.1 to 0.5 µM; in test [2], under 0.05 µM; in test [3] (Table 2), over 0.5 µM; in test [4] it was over 0.5 µM; in test [5] (Table 2) it was 0.1 to 0.5 µM.
For the molecule `Nc1ncnc2c1c(-c1cc3cccc(Cl)c3[nH]1)nn2C1CCOCC1` [Compound 51], the IC50 in test [1] (Table 2) is 0.1 to 0.5 µM; in test [2], under 0.05 µM; in test [3] it was over 0.5 µM; in test [4] it was over 0.5 µM; in test [5] (Table 2) it was 0.1 to 0.5 µM.
`CN1CCN(C2CC(n3nc(-c4cc5cc(O)ccc5[nH]4)c4c(N)ncnc43)C2)CC1` (stereo not shown) [Compound 52]: the half-maximal inhibitory concentration (IC50) is 0.1 to 0.5 µM in test [1]; under 0.5 µM in test [2]; over 0.5 µM in test [3]; over 0.5 µM in test [4]; over 0.5 µM in test [5].
With `CC(C)N1CCC(n2nc(-c3cc4cc(O)cc(Cl)c4[nH]3)c3c(N)ncnc32)CC1` [Compound 56], the IC50 in test [2], in test [3], in test [4] and in test [5] (Table 2) was over 0.5 µM throughout.
With `Nc1ncnc2c1c(-c1cc3cc(O)ccc3[nH]1)nn2C1CCC(N2CCOCC2)CC1` (stereo not shown) [Compound 57], the IC50 is under 0.025 µM in test [2], over 0.5 µM in test [3] (Table 2), over 0.5 µM in test [4] and over 0.5 µM in test [5] (Table 2).
Take `CN1CCN(C2CCC(n3nc(-c4cc5cc(O)ccc5[nH]4)c4c(N)ncnc43)CC2)CC1` (stereo not shown) [Compound 58]: the IC50 in test [2], in test [3], in test [4] and in test [5] (Table 2) was over 0.5 µM in each case.
As for `COc1ccc2cc(-c3nn(C4CCOCC4)c4ncnc(N)c34)[nH]c2c1` [Compound 59], the IC50 in test [2], in test [3] (Table 2), in test [4] and in test [5] (Table 2) was over 0.5 µM each time.
For `Nc1ncnc2c1c(-c1cc3ccc(O)cc3[nH]1)nn2C1CCOCC1` [Compound 60], the IC50 in test [2] is under 0.1 µM; in test [3] (Table 2), over 0.5 µM; in test [4], over 0.5 µM; in test [5] (Table 2) it was 0.05 to 0.1 µM.
Consider `COc1ccc(Cl)c2cc(-c3nn(C4CCOCC4)c4ncnc(N)c34)[nH]c12` [Compound 61], for which the IC50 in test [1] is over 0.5 µM; in test [2], under 0.025 µM; in test [3] (Table 2), over 0.5 µM; in test [4] it was over 0.5 µM; in test [5] (Table 2), over 0.5 µM.
`Nc1ncnc2c1c(-c1cc3cccc(O)c3[nH]1)nn2C1CCOCC1` [Compound 62]: the IC50 in test [1] (Table 2) was 0.05 to 0.1 µM; in test [2], under 0.005 µM; in test [3] (Table 2) it was over 0.5 µM; in test [4] it was over 0.5 µM; in test [5] (Table 2), over 0.5 µM.
For `COc1cccc2cc(-c3nn(C4CCOCC4)c4ncnc(N)c34)[nH]c12` [Compound 63], the IC50 in test [1] is 0.01 to 0.025 µM; in test [2], under 0.005 µM; in test [3] it was 0.1 to 0.5 µM; in test [4], over 0.5 µM; in test [5] (Table 2), 0.01 to 0.025 µM.
As to `CC(C)N1CCC(n2nc(-c3cc4cccc(O)c4[nH]3)c3c(N)ncnc32)CC1` [Compound 64], the IC50 in test [1] (Table 2) was 0.1 to 0.5 µM; in test [2], under 0.025 µM; in test [3] (Table 2), over 0.5 µM; in test [4], over 0.5 µM; in test [5] (Table 2), 0.1 to 0.5 µM.
Take `CC(=O)N1CCC(n2nc(-c3cc4ccc(O)cc4[nH]3)c3c(N)ncnc32)CC1` [Compound 65]: the IC50 in test [1] is 0.01 to 0.025 µM; in test [2] it was under 0.01 µM; in test [3] it was 0.025 to 0.05 µM; in test [4], over 0.5 µM; in test [5] (Table 2), 0.01 to 0.025 µM.
